In PubChem BioAssay (NCI):
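Interpolation was linear, between the two tested concentrations surrounding the appropriate level; five concentrations were tested over 48 hours in 96-well plates. Here, GI50 denotes the concentration required for 50% inhibition of growth. TGI is the concentration that stops growth completely.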

How the values were obtained:
Assay in all cases: DTP human tumour cell line panel, 48 h
786-0 renal = system: 786-0 renal
A498 renal = system: A498 renal
A549 NSCLC = system: A549 NSCLC
ACHN renal = system: ACHN renal
BT-549 breast = system: BT-549 breast
CAKI-1 renal = system: CAKI-1 renal
CCRF-CEM leukemia = system: CCRF-CEM leukemia
COLO 205 colon = system: COLO 205 colon
DU-145 prostate = system: DU-145 prostate
HCC-2998 colon = system: HCC-2998 colon
HCT-116 colon = system: HCT-116 colon
HCT-15 colon = system: HCT-15 colon
HL-60(TB) leukemia = system: HL-60(TB) leukemia
HOP-62 NSCLC = system: HOP-62 NSCLC
HOP-92 NSCLC = system: HOP-92 NSCLC
HS 578T breast = system: HS 578T breast
HT29 colon = system: HT29 colon
IGROV1 ovarian = system: IGROV1 ovarian
K-562 leukemia = system: K-562 leukemia
KM12 colon = system: KM12 colon
LOX IMVI melanoma = system: LOX IMVI melanoma
M14 melanoma = system: M14 melanoma
MALME-3M melanoma = system: MALME-3M melanoma
MCF7 breast = system: MCF7 breast
MDA-MB-231 breast = system: MDA-MB-231 breast
MDA-MB-435 = system: MDA-MB-435
MOLT-4 leukemia = system: MOLT-4 leukemia
NCI-H226 lung = system: NCI-H226 lung
NCI-H23 lung = system: NCI-H23 lung
NCI-H460 lung = system: NCI-H460 lung
NCI-H522 lung = system: NCI-H522 lung
NCI/ADR-RES ovarian = system: NCI/ADR-RES ovarian
OVCAR-3 ovarian = system: OVCAR-3 ovarian
OVCAR-4 ovarian = system: OVCAR-4 ovarian
OVCAR-5 ovarian = system: OVCAR-5 ovarian
OVCAR-8 ovarian = system: OVCAR-8 ovarian
PC-3 prostate = system: PC-3 prostate
RPMI-8226 leukemia = system: RPMI-8226 leukemia
RXF 393 renal = system: RXF 393 renal
SF-268 CNS = system: SF-268 CNS
SF-295 CNS = system: SF-295 CNS
SF-539 CNS = system: SF-539 CNS
SK-MEL-2 melanoma = system: SK-MEL-2 melanoma
SK-MEL-28 melanoma = system: SK-MEL-28 melanoma
SK-MEL-5 melanoma = system: SK-MEL-5 melanoma
SK-OV-3 ovarian = system: SK-OV-3 ovarian
SN12C renal = system: SN12C renal
SNB-19 CNS = system: SNB-19 CNS
SNB-75 CNS = system: SNB-75 CNS
SR leukemia = system: SR leukemia
SW-620 colon = system: SW-620 colon
T-47D breast = system: T-47D breast
TK-10 renal = system: TK-10 renal
U251 CNS = system: U251 CNS
UACC-62 melanoma = system: UACC-62 melanoma
UO-31 renal = system: UO-31 renal
UACC-257 melanoma = system: UACC-257 melanoma

## Cc1[c-]onc1C.Cc1[c-]onc1C.[Ag].[Ag].[NH-]S(=O)(=O)c1ccc(N=Nc2cc(N=Nc3ccc(S([NH-])(=O)=O)cc3)c3c(NC(=O)C(Cl)Cl)cccc3c2OC(=O)C(Cl)Cl)cc1
786-0 renal
  GI50: 8.87 µM
  TGI: 16.4 µM
A498 renal
  GI50: 13 µM
  TGI: 44.6 µM
A549 NSCLC
  GI50: 11 µM
  TGI: > 50 µM
ACHN renal
  GI50: 5.13 µM
  TGI: 11.9 µM
BT-549 breast
  GI50: 7.57 µM
  TGI: 14.8 µM
CAKI-1 renal
  GI50: 7.12 µM
  TGI: 14.2 µM
CCRF-CEM leukemia
  GI50: 9.28 µM
  TGI: 32.7 µM
COLO 205 colon
  GI50: 5.15 µM
  TGI: 30.4 µM
DU-145 prostate
  GI50: 7.38 µM
  TGI: 14.8 µM
HCC-2998 colon
  GI50: 10.9 µM
  TGI: 26 µM
HCT-116 colon
  GI50: 5.12 µM
  TGI: 18.2 µM
HCT-15 colon
  GI50: 9.82 µM
  TGI: 32.1 µM
HL-60(TB) leukemia
  GI50: 11 µM
  TGI: 26.7 µM
HOP-62 NSCLC
  GI50: 16.8 µM
  TGI: 38.9 µM
HOP-92 NSCLC
  GI50: 7.85 µM
  TGI: 18.4 µM
HS 578T breast
  GI50: 5.81 µM
  TGI: > 50 µM
HT29 colon
  GI50: 9.29 µM
  TGI: 21.7 µM
IGROV1 ovarian
  GI50: 6.53 µM
  TGI: 26.4 µM
K-562 leukemia
  GI50: 3.99 µM
  TGI: 32.2 µM
KM12 colon
  GI50: 7.44 µM
  TGI: 18.1 µM
LOX IMVI melanoma
  GI50: 7.75 µM
  TGI: 18.3 µM
M14 melanoma
  GI50: 8.18 µM
  TGI: 18.4 µM
MALME-3M melanoma
  GI50: 9.07 µM
  TGI: 21.2 µM
MCF7 breast
  GI50: 2.12 µM
  TGI: > 50 µM
MDA-MB-231 breast
  GI50: 5.44 µM
  TGI: 19.1 µM
MDA-MB-435
  GI50: 7.87 µM
  TGI: 16.3 µM
MOLT-4 leukemia
  GI50: 8.18 µM
  TGI: 28.1 µM
NCI-H226 lung
  GI50: 12.6 µM
  TGI: > 50 µM
NCI-H23 lung
  GI50: 8.3 µM
  TGI: 22.8 µM
NCI-H460 lung
  GI50: 6.53 µM
  TGI: 18.1 µM
NCI-H522 lung
  GI50: 1.75 µM
  TGI: 14 µM
NCI/ADR-RES ovarian
  GI50: 21 µM
  TGI: > 50 µM
OVCAR-3 ovarian
  GI50: 7.6 µM
  TGI: 15.8 µM
OVCAR-4 ovarian
  GI50: 7.66 µM
  TGI: 15.1 µM
OVCAR-5 ovarian
  GI50: 9.92 µM
  TGI: 19 µM
OVCAR-8 ovarian
  GI50: 10.1 µM
  TGI: 36.4 µM
PC-3 prostate
  GI50: 6.82 µM
  TGI: > 50 µM
RPMI-8226 leukemia
  GI50: 9.27 µM
  TGI: 27.2 µM
RXF 393 renal
  GI50: 6.47 µM
  TGI: 15.6 µM
SF-268 CNS
  GI50: 8.78 µM
  TGI: 28.1 µM
SF-295 CNS
  GI50: 33.9 µM
  TGI: > 50 µM
SF-539 CNS
  GI50: 14.2 µM
  TGI: > 50 µM
SK-MEL-2 melanoma
  GI50: 6.89 µM
  TGI: 15.9 µM
SK-MEL-28 melanoma
  GI50: 8.18 µM
  TGI: 17 µM
SK-MEL-5 melanoma
  GI50: 1.71 µM
  TGI: 6.07 µM
SK-OV-3 ovarian
  GI50: 9.66 µM
  TGI: 18.5 µM
SN12C renal
  GI50: 14.9 µM
  TGI: > 50 µM
SNB-19 CNS
  GI50: 7.38 µM
  TGI: 16.9 µM
SNB-75 CNS
  GI50: 6.85 µM
  TGI: 18.9 µM
SR leukemia
  GI50: 9.59 µM
  TGI: 42.5 µM
SW-620 colon
  GI50: 3.54 µM
  TGI: 12.8 µM
T-47D breast
  GI50: 2.1 µM
  TGI: 17.4 µM
TK-10 renal
  GI50: 10 µM
  TGI: 18.2 µM
U251 CNS
  GI50: 8.45 µM
  TGI: 18.8 µM
UACC-62 melanoma
  GI50: 7.36 µM
  TGI: 14.5 µM
UO-31 renal
  GI50: 6.06 µM
  TGI: 12.8 µM

## CCN(Cc1ccc(F)c(F)c1)c1ccc(CO)c(Cl)c1
786-0 renal
  GI50: 5.44 µM
  TGI: 22.9 µM
A498 renal
  GI50: 0.0353 µM
  TGI: 0.153 µM
A549 NSCLC
  GI50: 1.89 µM
  TGI: 19.1 µM
ACHN renal
  GI50: 9.77 µM
  TGI: 22.8 µM
BT-549 breast
  GI50: 11.3 µM
  TGI: 25 µM
CAKI-1 renal
  GI50: 3.92 µM
  TGI: 27.5 µM
CCRF-CEM leukemia
  GI50: 15.1 µM
  TGI: 47 µM
COLO 205 colon
  GI50: 2.32 µM
  TGI: 7.48 µM
DU-145 prostate
  GI50: 14.8 µM
  TGI: 38.2 µM
HCC-2998 colon
  GI50: 5.59 µM
  TGI: 21.6 µM
HCT-116 colon
  GI50: 0.0911 µM
  TGI: 11.4 µM
HCT-15 colon
  GI50: 6.63 µM
  TGI: 25 µM
HL-60(TB) leukemia
  GI50: 5.42 µM
  TGI: 29.3 µM
HOP-62 NSCLC
  GI50: 1.71 µM
  TGI: 17.4 µM
HOP-92 NSCLC
  GI50: 0.835 µM
  TGI: 12.2 µM
HS 578T breast
  GI50: 12.4 µM
  TGI: 40 µM
HT29 colon
  GI50: 4.52 µM
  TGI: 19.1 µM
IGROV1 ovarian
  GI50: 0.098 µM
  TGI: 0.477 µM
K-562 leukemia
  GI50: 1.37 µM
  TGI: 21.5 µM
KM12 colon
  GI50: 13.9 µM
  TGI: 28.4 µM
LOX IMVI melanoma
  GI50: 11.8 µM
  TGI: 25.7 µM
M14 melanoma
  GI50: 14 µM
  TGI: 30.2 µM
MALME-3M melanoma
  GI50: 17.2 µM
  TGI: 33.3 µM
MCF7 breast
  GI50: 0.195 µM
  TGI: 12.3 µM
MDA-MB-231 breast
  GI50: 12.8 µM
  TGI: 26.6 µM
MDA-MB-435
  GI50: 17.9 µM
  TGI: 37.6 µM
MOLT-4 leukemia
  GI50: 16.8 µM
  TGI: 47.6 µM
NCI-H23 lung
  GI50: 6.7 µM
  TGI: 27.1 µM
NCI-H460 lung
  GI50: 0.253 µM
  TGI: 10.7 µM
NCI-H522 lung
  GI50: 13.2 µM
  TGI: 30.2 µM
NCI/ADR-RES ovarian
  GI50: 11.4 µM
  TGI: 27.4 µM
OVCAR-3 ovarian
  GI50: 0.395 µM
  TGI: 2.25 µM
OVCAR-4 ovarian
  GI50: 0.18 µM
  TGI: 1.46 µM
OVCAR-5 ovarian
  GI50: 0.0592 µM
  TGI: 0.306 µM
OVCAR-8 ovarian
  GI50: 11.9 µM
  TGI: 27.9 µM
PC-3 prostate
  GI50: 12.3 µM
  TGI: 27.4 µM
RPMI-8226 leukemia
  GI50: 2.44 µM
  TGI: 28.9 µM
RXF 393 renal
  GI50: 2.73 µM
  TGI: 15.9 µM
SF-268 CNS
  GI50: 15 µM
  TGI: 32.4 µM
SF-295 CNS
  GI50: 0.51 µM
  TGI: 12.1 µM
SF-539 CNS
  GI50: 13.7 µM
  TGI: 27.3 µM
SK-MEL-2 melanoma
  GI50: 4.08 µM
  TGI: 19.5 µM
SK-MEL-28 melanoma
  GI50: 12.4 µM
  TGI: 25.1 µM
SK-MEL-5 melanoma
  GI50: 5.85 µM
  TGI: 20.3 µM
SK-OV-3 ovarian
  GI50: 5.94 µM
  TGI: 19.3 µM
SN12C renal
  GI50: 11 µM
  TGI: 23.9 µM
SNB-19 CNS
  GI50: 12.6 µM
  TGI: 27.8 µM
SNB-75 CNS
  GI50: 2.99 µM
  TGI: 19.5 µM
SR leukemia
  GI50: 20.2 µM
  TGI: 52.5 µM
SW-620 colon
  GI50: 0.753 µM
  TGI: 21 µM
T-47D breast
  GI50: 0.0977 µM
  TGI: 0.667 µM
TK-10 renal
  GI50: 0.102 µM
  TGI: 0.303 µM
U251 CNS
  GI50: 0.867 µM
  TGI: 15.1 µM
UACC-257 melanoma
  GI50: 0.138 µM
  TGI: 0.432 µM
UACC-62 melanoma
  GI50: 0.12 µM
  TGI: 0.919 µM
UO-31 renal
  GI50: 2.7 µM
  TGI: 19.2 µM
